# Experimental data: patent publication US5972680A, “Glucose transporter vesicle aminopeptidase” (Bayer Corporation, priority 1995, dated 1999)
# Where two headings read alike, the source gives them in different places. Where a SMILES comes first, the peptide text is derived from it. The star is where a group is joined. CH2Cl = ClC*
# Key:
# GTVap [1] = target: T1, GTVap (Rattus norvegicus, UniProt P97629); assay: GTVap inhibition by protease and aminopeptidase inhibitors, leu-p-nitroanilide substrate, HDM extract; type: biochemical; conditions: for IC50: HDM enzyme extract, inhibitor added 15 minutes prior to leu-p-nitroanilide substrate
# T1 construct: the GTVaps were solubilized from GLUT4 vesicles, LDM, HDM, and PM using 0.1% Triton X-100; from tissue; host or cells: adipocytes of epididymal fat pads of Sprague-Dawley rats, HDM fraction (Triton X-100 extract)
# T1 sequence (P97629 1-1025): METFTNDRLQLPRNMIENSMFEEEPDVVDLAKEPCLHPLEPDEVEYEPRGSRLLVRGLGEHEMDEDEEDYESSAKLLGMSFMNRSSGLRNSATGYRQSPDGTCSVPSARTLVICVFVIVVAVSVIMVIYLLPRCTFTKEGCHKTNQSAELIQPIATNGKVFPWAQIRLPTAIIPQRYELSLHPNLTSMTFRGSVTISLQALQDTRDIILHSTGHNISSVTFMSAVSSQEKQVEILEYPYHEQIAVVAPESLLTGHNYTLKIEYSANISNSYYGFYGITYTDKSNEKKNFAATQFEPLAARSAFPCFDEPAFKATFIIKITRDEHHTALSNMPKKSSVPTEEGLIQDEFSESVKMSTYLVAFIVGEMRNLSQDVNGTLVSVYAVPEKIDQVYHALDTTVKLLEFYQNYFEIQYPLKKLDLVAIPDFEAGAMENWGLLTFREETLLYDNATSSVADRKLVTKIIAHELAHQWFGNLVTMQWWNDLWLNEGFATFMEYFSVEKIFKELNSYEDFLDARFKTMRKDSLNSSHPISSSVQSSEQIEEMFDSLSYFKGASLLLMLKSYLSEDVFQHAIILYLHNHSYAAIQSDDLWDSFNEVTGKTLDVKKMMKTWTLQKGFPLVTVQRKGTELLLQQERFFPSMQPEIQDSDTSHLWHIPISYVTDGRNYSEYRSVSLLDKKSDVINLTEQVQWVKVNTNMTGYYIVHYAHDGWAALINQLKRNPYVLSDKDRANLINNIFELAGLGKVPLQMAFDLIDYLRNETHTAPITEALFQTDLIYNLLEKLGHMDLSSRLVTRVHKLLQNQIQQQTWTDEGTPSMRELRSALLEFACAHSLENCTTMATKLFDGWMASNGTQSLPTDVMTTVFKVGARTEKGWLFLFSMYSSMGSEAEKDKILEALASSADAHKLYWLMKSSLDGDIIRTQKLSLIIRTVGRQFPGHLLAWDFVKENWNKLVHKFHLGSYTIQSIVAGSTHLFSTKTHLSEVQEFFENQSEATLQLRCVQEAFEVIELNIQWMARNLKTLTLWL
# GTVap [2] = target: T1, GTVap; assay: Ion stabilization of GTVap activity over time at 4° C.; type: biochemical; conditions: HDM extract in 20 mM Tris-HCl pH 7.5 at 4° C.
# GTVap [3] = target: T1, GTVap; assay: Effect of ions on GTVap activity, Triton X-100 extracts of HDM; type: biochemical
# GLUT4 vesicle GTVap = target: T2, GLUT4 vesicle GTVap (Rattus norvegicus, UniProt P97629); assay: Relative activity of GLUT4 vesicle GTVap with amino acid β-napthylamide substrates; type: biochemical; conditions: GLUT4 vesicle extract; substrate 200 uM
# T2 construct: a GLUT4 vesicle extract was prepared as described above and incubated with each substrate; from tissue; host or cells: GLUT4 vesicles immunopurified from the LDM fraction of rat epididymal adipocytes
# T2 sequence (P97629 1-1025): T1 sequence (P97629 1-1025)
# Procedure: Unless otherwise indicated, the GTVaps were solubilized from GLUT4 vesicles, LDM, HDM, and PM using 0.1% Triton X-100 in 20 mM Tris, pH 7.5 at 4° C. for 15 minutes. The insoluble material was pelleted at 20,000×g for 20 minutes and discarded. […] The results are reported as pmoles p-nitroanilide produced per μg protein/hour at 37° C. unless otherwise noted.
# To characterize the relative reactivities of GTVap to different amino acid β-napthylamide substrates, a GLUT4 vesicle extract was prepared as described above and incubated with each substrate at a concentration of 200 uM as described above.
# GTVap [4] = target: T1, GTVap; assay: Relative activity of GTVap with amino acid p-nitroanilide substrates, HDM extract; type: biochemical; conditions: substrate 1.6 mM, 37° C.
# Procedure: The […] can be maximally extracted (>95%) from the LDM, HDM, and PM membranous compartments using low concentrations of detergents. Unless otherwise indicated, the […] were solubilized from GLUT4 vesicles, LDM, HDM, and PM using 0.1% Triton X-100 in 20 mM Tris, pH 7.5 at 4° C. for 15 minutes. The insoluble material was pelleted at 20,000×g for 20 minutes and discarded. […] The UV absorbance of the p-nitroanilide product was measured at 405 nm and quantified by comparison to p-nitroanilide standards. The results are reported as pmoles p-nitroanilide produced per μg protein/hour at 37° C. unless otherwise noted. Alternatively, the results are presented as change in OD at 405 nm if the protein was too low to determine (eg column fractions) or a relative comparison was being made. […] To characterize the relative reactivities of GTVap to different amino acid p-nitroanilide substrates, an HDM extract was prepared as described above and incubated with each substrate at a concentration of 1.6 mM as described above.
# GTVap [5] = assay: Insulin-stimulated translocation of GTVap to the plasma membrane in rat adipocytes; type: cell-based; conditions: insulin 10 nM, 20 minutes at 37° C.
# Procedure: Epididymal fat pads from 125 g Sprague-Dawley rats were removed and immediately placed in KRBH buffer containing 1% BSA, 2.5 mM glucose and 200 nM adenosine. The fat was minced, collagenase was added to 3 mg/ml, and the mixture was incubated at 37° C. for 45 minutes with shaking. The dissociated adipocytes were filtered through a 250 micron nylon screen and washed 3 times (using mild centrifugation) with KRBH containing 1% BSA and 200 nM adenosine. The cells were resuspended in the wash buffer containing 3% BSA.
# The membrane fractions PM, HDM and LDM were prepared generally according to Simpson et. al., Biochimica et Biophysica Acta, 763, 393-407 (1983). Isolated adipocytes were homogenized in a chilled Wheaton 55 ml teflon pestle homogenizer for ten strokes. The fat layer was removed following a 10,000×g centrifugation and the remaining material was rehomogenized. The PM fraction was pelleted at 16,000×g and the supernatant was recentrifuged to remove any additional PM. […]
# GLUT4 is known to translocate from an intracellular vesicular compartment to the plasma membrane upon insulin stimulation. […] The insulin stimulated and control adipocytes were fractionated into the subcellular compartments and analyzed for GTVap enzyme and protein (Western blot) as previously described.
# GTVap [6] = target: T1, GTVap; assay: GTVap cleavage of insulin by HDM, mass spectrometry; type: biochemical; conditions: HDM 1.8 mg/ml, 120 μg/ml porcine insulin, 37° C., pH 7.5
# Procedure: HDM (1.8 mg/ml) was incubated at 37° C. with 120 μg/ml porcine insulin in 50 mM sodium borate, pH 7.5, containing the following protease inhibitors that were previously shown to have no inhibitory effect on GTVap: 2 mM benzamidine, 2 μM leupeptin, 1 μM pepstatin, 1 mM DFP, and 150 μM PMSF. The reaction was terminated after various incubation times by centrifugation of aliquots at 200,000×g to remove the HDM. The insulin products were detected by mass spectrometry or were first chromatographed on a 2.1×15 cm Beckman Spherisorb C18 column at 0.25 ml/min. in a 4 hour linear gradient of 27% to 31% acetonitrile in 1% TFA adjusted to pH 3.0 with TEA, prior to mass spectroscopic analysis.
# [7] = target: GTVap (Glucose Transporter Vesicle aminopeptidase) as present in rat adipocyte HDM and HDM extracts (rat); assay: batch adsorption of solubilised HDM extract on wheat germ lectin-Sepharose
# [8] = incubated 15 minutes at 37° C. before leu-p-nitroanilide
compound,measurement,setting,value
O[C@H](CS)[C@H](O)CS (racemic) [Dithiothreitol],activation at 200 µM,"GTVap [1]; at 0.2 mM, read-out: increase of enzyme activity",20%
same,inhibition at 5000 µM,GTVap [1]; at 5 mM,30%
[Ca] [Calcium],stabilization of GTVap activity against time dependent inactivation,GTVap [2],stabilizes the enzyme activity
same,effect of ion on GTVap enzyme activity,GTVap [3]; [8],"partially activate, but at high μmolar to mmolar ion concentrations"
CC(C)C[C@H](NC(=O)[C@@H](N)CC(C)C)C(=O)N[C@@H](Cc1ccccc1)C(=O)CCl [Leu-Leu-Phe-chloromethyl ketone] (H-Leu-Leu-Phe-CH2Cl),IC50,GTVap [1],1000 µM
"O=S(=O)(F)Cc1ccccc1 [PMSF, phenylmethylsulfonyl fluoride]",effect on GTVap activity,GTVap [1],no effect
[Zn+2] [Zinc],stabilization of GTVap activity against time dependent inactivation,GTVap [2],do not stabilize the enzyme
same,effect of ion on GTVap enzyme activity,GTVap [3]; [8],optimally activate at μmolar concentrations and inhibit at mmolar concentrations
"CCCCC[C@H](CC(=O)NO)C(=O)N[C@H](C(=O)N1CCC[C@H]1CO)C(C)C [actinonin, Actinonin]",IC50,GTVap [1],> 1000 µM
N=C(N)NCCCC(N)C(=O)Nc1ccc2ccccc2c1 (stereo not drawn) [arginine β-napthylamide],activity of GLUT4 vesicle GTVap with amino acid-β-napthylamide substrate,GLUT4 vesicle GTVap,6.5 nmoles/25 uL extract/hr
"N=C(N)c1ccccc1 [benzamidine, Benzamidine]",effect on GTVap activity,GTVap [1],no effect
[Co+2] [cobalt],stabilization of GTVap activity against time dependent inactivation,GTVap [2],do not stabilize the enzyme
same,effect of ion on GTVap enzyme activity,GTVap [3]; [8],optimally activate at μmolar concentrations and inhibit at mmolar concentrations
c1ccc(-c2ccccn2)nc1 [dipyridyl],inhibition of GTVap activity,GTVap [1],> 98%
NCC(=O)Nc1ccc([N+](=O)[O-])cc1 [glycine p-nitroanilide],activity of GTVap with amino acid-p-nitroanilide substrate,GTVap [4],0.08 nmoles/μg protein/hr
"CC(=O)N[C@@H](CC(C)C)C(=O)N[C@@H](CC(C)C)C(=O)N[C@H](C=O)CCCNC(=N)N [leupeptin, Leupeptin]",effect on GTVap activity,GTVap [1],no effect
"CC(C)C[C@H](N)CS [leuthiol, L-leucinethiol]",IC50,GTVap [1],2 µM
[Mg] [magnesium],effect of ion on GTVap enzyme activity,GTVap [3]; [8],"partially activate, but at high μmolar to mmolar ion concentrations"
[Mn+2] [manganese],stabilization of GTVap activity against time dependent inactivation,GTVap [2],do not stabilize the enzyme
same,effect of ion on GTVap enzyme activity,GTVap [3]; [8],optimally activate at μmolar concentrations and inhibit at mmolar concentrations
CSCCC(N)C(=O)Nc1ccc2ccccc2c1 (stereo not drawn) [methionine β-napthylamide],activity of GLUT4 vesicle GTVap with amino acid-β-napthylamide substrate,GLUT4 vesicle GTVap,2.9 nmoles/25 uL extract/hr
c1cnc2c(c1)ccc1cccnc12 [phenanthroline],inhibition of GTVap activity,"GTVap [1]; at >0.2 mM, relative to inhibitor-free control",> 98%
NC(Cc1ccccc1)C(=O)Nc1ccc2ccccc2c1 (stereo not drawn) [phenylalanine β-napthylamide],activity of GLUT4 vesicle GTVap with amino acid-β-napthylamide substrate,GLUT4 vesicle GTVap,0.9 nmoles/25 uL extract/hr
[K+] [potassium],effect of ion on GTVap enzyme activity,GTVap [3]; between 1 μM and 10 mM,no effect
O=C(Nc1ccc([N+](=O)[O-])cc1)[C@@H]1CCCN1 [proline p-nitroanilide],activity of GTVap with amino acid-p-nitroanilide substrate,GTVap [4],0.35 nmoles/μg protein/hr
CC(C)[C@H](N)C(=O)Nc1ccc([N+](=O)[O-])cc1 [valine p-nitroanilide],activity of GTVap with amino acid-p-nitroanilide substrate,GTVap [4],0.09 nmoles/μg protein/hr
insulin: Insulin (porcine) obtained from Eli Lilly,GTVap translocation (Western blot reactivity),GTVap [5],translocates to the plasma membrane
same,increase of GTVap enzyme activity in the plasma membrane,GTVap [5],29%
same,cleavage of insulin by GTVap (mass spectroscopic analysis),GTVap [6],N-terminal residues phenylalanine and valine of the B-subunit of insulin were removed sequentially
lithium,effect of ion on GTVap enzyme activity,GTVap [3]; between 1 μM and 10 mM,no effect
wheat germ lectin-Sepharose 6 MB (tool reagent),percent of total aminopeptidase activity bound,[7],93%
